The results in this text go back to publication PMC12156185, “Synthesis of Cyclic Hexapeptides via the Hydrazide Method and Evaluation of Their Antibacterial Activities” (Molecules, 2025).

Common to all, as to format: cell-based
One data set concerns Candida tropicalis. In words: Scanning electron microscopy of treated cells. Conditions: 4 MIC (32 μM for Cy-f2, 128 μM for Cy-f4), 1 h, 30 °C, 5000× magnification; clotrimazole as positive control. The protocol: (§1) To investigate the morphological effects of the cyclic peptides Cy-f2 and Cy-f4 on Klebsiella pneumoniae and Candida tropicalis, scanning electron microscopy (SEM) was performed (Figure 7). […] Untreated cells served as controls. Samples were fixed, dehydrated, and coated with gold for SEM imaging at 5000× magnification. Effects on Klebsiella pneumoniae (Panel A). […] The bactericidal efficacy of Cy-f2 and Cy-f4 against Klebsiella pneumoniae was verified through comparative evaluation of the treatment group and the positive control group. Effects on Candida tropicalis (Panel B) untreated C. tropicalis cells in the control group appeared as smooth, spherical to oval-shaped yeast cells with intact cell walls.
(§2) According to the method of He with adjustments, bacteria were grown to the logarithmic phase and then washed and resuspended in sterile PBS to an OD600 of 0.4. They were incubated with an equal volume of AMPs at 4× MIC for 1 h. After incubation, the bacterial pellets were washed three times with PBS and centrifuged at 3500 rpm for 4 min. The pellets were then fixed overnight in 2.5% (w/v) glutaraldehyde. The bacterial samples were dehydrated using a series of ethanol solutions with increasing concentrations (30%, 50%, 70%, 90%, and 100%). After dehydration, the samples were dried and sputter-coated with gold. Bacterial fragmentation was observed using scanning electron microscopy (HITACHI SU5000, Tokyo, Japan). Untreated bacterial suspensions served as the negative control.

Data set [1] relates to Candida tropicalis (BNCC 340288). Conditions: BNCC 340288, 24 h. The protocol:
(§3) The antimicrobial and antifungal activities of 11 cyclic hexapeptides (Cy-f1 to Cy-f11) were evaluated by determining their minimum inhibitory concentrations (MICs) against a panel of pathogens (Figure 4). These pathogens included Gram-negative bacteria (Escherichia coli, Klebsiella pneumoniae, Pseudomonas aeruginosa), Gram-positive bacteria (Staphylococcus aureus, Bacillus subtilis, Staphylococcus aureus [MRSA], […]), and fungi (Candida tropicalis, Cryptococcus neoformans).
(§4) The antibacterial activity of peptide analogs was tested against different bacterial strains, all purified cyclotides underwent antibacterial testing against Gram-positive bacterium Staphylococcus aureus (BNCC 186335), Bacillus subtilis (BNCC 109047), and Staphylococcus aureus (MRSA, BNCC 330041), Gram-negative bacteria, including Acinetobacter baumannii (BNCC 337173), Pseudomonas aeruginosa (BNCC 125486), and […]. Fungi included Candida parapsilosis (BNCC 336515) and Candida tropicalis (BNCC 340288). All the above strains are from the Henan Provincial Engineering Research Center of Industrial Microorganisms (Henan, China). Escherichia coli (ATCC 25922) and Klebsiella pneumoniae (CMCC(B) 46117) were sourced from Guangzhou HuanKai Microbial Technology Co., Ltd. (Guangzhou, China). The peptides’ MIC was determined using the Clinical and Laboratory Standards Institute broth dilution procedure with slight modifications.
Candida tropicalis was cultured on Sabourad Dextrose Agar (SDA). A single colony was inoculated in YM broth medium and grown overnight at 37 °C while shaking. Peptides were diluted in SDB media by two-fold dilution, resulting in 100 µL of medium containing increasing concentrations. The overnight culture (turbidity at OD600 = 1) was 1000× diluted in SDB. Then 100 µL of this suspension was added to each well, resulting in a final 200 µL suspension containing 2–4 × 10^5 CFU/mL. The plate was incubated at 37 °C for 24 h.
(§5) Each test was performed at least three times. MIC (minimum inhibitory concentration) values were determined as the concentrations of peptides that caused >99% inhibition of bacterial growth.

In data set [2] the test system is Pseudomonas aeruginosa (BNCC 125486). On the procedure: as §3, §4
(§6) Colonies of these bacterial strains were grown in respective agar media, then inoculated in Mueller Hinton (MH) broth and incubated at 37 °C overnight. The peptide solutions were first diluted 1 in 100 (from the stock solution at 20 mM) and then further two-fold dilution in MH broth in a sterile 96-well plate was performed, resulting in 100 µL of broth containing increasing concentrations. Bacteria in their exponential growth phase were diluted in MH broth, and 100 µL of this suspension was added in each well. […] Then, these plates were incubated at 37 °C for 20–22 h.
as §5

Data set [3] concerns Acinetobacter baumannii (BNCC 337173). On the procedure:
as §3, §4, §6, §5

Data set [4] has as its system Klebsiella pneumoniae (CMCC(B) 46117). On the procedure: as §3, §4, §6, §5
The subject of data set [5] is Staphylococcus aureus (MRSA, BNCC 330041). The protocol:
as §3, §4, §6, §5

The test system of data set [6] is Bacillus subtilis (BNCC 109047). The protocol: as §3, §4, §6, §5
In data set [7] the test system is Staphylococcus aureus (BNCC 186335). On the procedure: as §3, §4, §6, §5
For data set [8], the system named is Escherichia coli (ATCC 25922). On the procedure: as §3, §4, §6, §5
The test system of data set [9] is Cryptococcus neoformans (BNCC 225501). The conditions noted are these: BNCC 225501, 48 h. The protocol: as §3, §4, §5
The next data set deals with red blood cells (RBCs). On the procedure: Based on the antimicrobial activity screening, a hemolysis assay was conducted to assess the toxicity of Cy-f1, Cy-f2, and Cy-f4 (Figure 5). For Cy-f1, the hemolysis percentage remained consistently low across all tested concentrations. At 8 μM, Cy-f1 induced approximately 0.12% hemolysis. […] For Cy-f2, the hemolysis percentage also remained consistently low across all tested concentrations. At 8 μM, Cy-f2 induced approximately 0.3% hemolysis, and Cy-f2 stayed stable at 0.3% at 16 μM and 32 μM. […] At 8 μM, it induced approximately 0.7% hemolysis, […]. However, hemolysis increased slightly with higher concentrations, reaching approximately […] and 1.1% at 16 μM and 32 μM, respectively. […] In this experiment Triton X-100 was used as a positive control with a hemolysis rate of 100%.
Figure S4. SEM images of RBCs treated with Cy-f1, Cy-f2, and Cy-f4. (A) SEM images of RBCs
treated with Cy-f1. (B) SEM images of RBCs treated with Cy-f2. (C) SEM images of RBCs treated […]

A further data set has as its system Klebsiella pneumoniae. Description: Scanning electron microscopy of treated cells. The conditions noted are these: 4 MIC (64 μM for Cy-f2, 128 μM for Cy-f4), 1 h, 37 °C, 5000× magnification; cefoperazone sodium as positive control. On the procedure: as §1, §2

The structures appear in SMILES notation. In brackets after ≈: the same amount, converted by molar mass. Where a SMILES comes first, the peptide text is derived from it.

With `Clc1ccccc1C(c1ccccc1)(c1ccccc1)n1ccnc1` [clotrimazole, reference compound], in the data set with Candida tropicalis, the “Cell morphology of C. tropicalis by SEM” value was “fragmentation and shrinkage”.

In the case of `CC[C@H](C)[C@@H]1NC(=O)[C@H](CS)NC(=O)[C@H](CC(C)C)NC(=O)[C@H]([C@@H](C)CC)NC(=O)[C@@H]2CCCN2C(=O)[C@H](CCCNC(=N)N)NC1=O` [Cy-f9] (cyclo(CIRPIL)), in data set [1], the “MIC against C. tropicalis” value is more than 200 µM. In addition, the “MIC against P. aeruginosa” value in data set [2] was more than 200 µM. Also, the “MIC against A. baumannii” value in data set [3] was more than 200 µM. Further, the “MIC against K. pneumoniae” value in data set [4] is more than 200 µM. In addition, the “MIC against MRSA” value in [5] was more than 200 µM. For the same molecule, the “MIC against B. subtilis” value in [6] is more than 200 µM. The “MIC against S. aureus” value in data set [7] was more than 200 µM. In [8], the “MIC against E. coli” value is more than 200 µM. For the same molecule, the “MIC against C. neoformans” value in data set [9] was more than 200 µM.

`CC[C@H](C)[C@@H]1NC(=O)[C@H](CCCCN)NC(=O)[C@H](CC(C)C)NC(=O)[C@H](CC(C)C)NC(=O)[C@H](CS)NC(=O)[C@H](Cc2ccccc2)NC1=O` [Cy-f1] (cyclo(CLLKIF)): the “Morphology of red blood cells by SEM” value in the data set with red blood cells (RBCs) is reported as “maintained well-preserved cell morphology”. Besides, in data set [1], the “MIC against C. tropicalis” value came to 64 µM (≈ 46 µg/mL). In addition, in data set [2], the “MIC against P. aeruginosa” value came out at 128 µM (≈ 91.9 µg/mL). In addition, in data set [3], the “MIC against A. baumannii” value came out at 32 µM (≈ 23 µg/mL). Besides, the “MIC against K. pneumoniae” value in [4] is 64 µM (≈ 46 µg/mL). Moreover, the “MIC against MRSA” value in data set [5] is 16 µM (≈ 11.5 µg/mL). The “MIC against B. subtilis” value in data set [6] was found to be 4 µM (≈ 2.87 µg/mL). In data set [7], the “MIC against S. aureus” value was determined as 8 µM (≈ 5.74 µg/mL). The “MIC against E. coli” value in data set [8] was found to be 64 µM (≈ 46 µg/mL). Further, in data set [9], the “MIC against C. neoformans” value worked out at 16 µM (≈ 11.5 µg/mL).

In the case of `CC(C)C[C@@H]1NC(=O)[C@H](CCCCN)NC(=O)[C@H](CS)NC(=O)[C@H](Cc2ccccc2)NC(=O)[C@H](Cc2c[nH]c3ccccc23)NC(=O)[C@H](CCCNC(=N)N)NC1=O` [Cy-f4] (cyclo(CKLRWF)), the “Morphology of red blood cells by SEM” value with red blood cells (RBCs) is “maintained well-preserved cell morphology”. Also, the “MIC against C. tropicalis” value in data set [1] was 64 µM (≈ 53.4 µg/mL). In addition, in data set [2], the “MIC against P. aeruginosa” value amounted to 128 µM (≈ 107 µg/mL). Also, the “MIC against A. baumannii” value in [3] was found to be 64 µM (≈ 53.4 µg/mL). The “MIC against K. pneumoniae” value in data set [4] amounted to 32 µM (≈ 26.7 µg/mL). Besides, the “MIC against MRSA” value in data set [5] is 32 µM (≈ 26.7 µg/mL). Moreover, in data set [7], the “MIC against S. aureus” value worked out at 16 µM (≈ 13.3 µg/mL). Further, the “Cell morphology of C. tropicalis by SEM” value with Candida tropicalis is “mild surface roughening and slight deformation but retaining overall structural integrity”. Besides, the “Cell morphology of K. pneumoniae by SEM” value with Klebsiella pneumoniae was “extensive membrane rupture, cell deformation, and leakage of intracellular contents”. Further, the “MIC against C. neoformans” value in [9] was 32 µM (≈ 26.7 µg/mL).

For the molecule `CCN1CCN(C(=O)N[C@@H](C(=O)N[C@@H]2C(=O)N3C(C(=O)O)=C(CSc4nnnn4C)CS[C@H]23)c2ccc(O)cc2)C(=O)C1=O` [cefoperazone sodium, reference compound], in the data set with Klebsiella pneumoniae, the “Cell morphology of K. pneumoniae by SEM” value was “surface roughening, cell shrinkage, and partial membrane disruption”.
